Source: ChEMBL document CHEMBL3745698, “α-Aryl-N-aryl nitrones: Synthesis and screening of a new scaffold for cellular protection against an oxidative toxic stimulus” (Bioorg Med Chem, 2016)
Active and inactive are the calls of the source. The calls are words filed in the database; no cut-off is given here.

Legend:
[1] = tested on: SH-SY5Y; experiment: Cytoprotective activity against H2O2-induced toxicity in human SH-SY5Y cells assessed as increase in cell viability at 1 uM preincubated for 24 hrs followed by H2O2 addition measured after 24 hrs by MTT assay relative to control; format: functional
[2] = tested on: SH-SY5Y; experiment: Cytoprotective activity against H2O2-induced toxicity in human SH-SY5Y cells assessed as increase in cell viability at 1 uM preincubated for 24 hrs followed by H2O2 addition measured after 24 hrs by MTT assay relative to PBN; format: functional
[3] = tested on: SH-SY5Y; experiment: Cytoprotective activity against H2O2-induced apoptosis in human SH-SY5Y cells assessed as dead cells at 1 uM preincubated for 24 hrs followed by H2O2 addition measured after 24 hrs by annexin V-FITC/propidium iodide staining-based flow cytometric analysis (reference value: 25.81 +/- 3.57%); format: functional
[4] = tested on: SH-SY5Y; experiment: (§1) Cytoprotective activity against H2O2-induced apoptosis in human SH-SY5Y cells assessed as late apoptotic cells at 1 uM preincubated for 24 hrs followed by H2O2 addition measured after 24 hrs by annexin V-FITC/propidium iodide staining-based flow cytometric analysis (reference value: 2.78 +/- 0.53%); format: functional
[5] = tested on: SH-SY5Y; experiment: Cytoprotective activity against H2O2-induced apoptosis in human SH-SY5Y cells assessed as viable cells at 1 uM preincubated for 24 hrs followed by H2O2 addition measured after 24 hrs by annexin V-FITC/propidium iodide staining-based flow cytometric analysis (reference value: 71.08 +/- 2.34%); format: functional; conditions: read-out: Activity
[6] = tested on: SH-SY5Y; experiment: Cytoprotective activity against H2O2-induced apoptosis in human SH-SY5Y cells assessed as early apoptotic cells at 1 uM preincubated for 24 hrs followed by H2O2 addition measured after 24 hrs by annexin V-FITC/propidium iodide staining-based flow cytometric analysis relative to control; format: functional
[7] = tested on: SH-SY5Y; experiment: Toxicity in H2O2 stressed human SH-SY5Y cells assessed as effect on total glutathione level at 1 uM preincubated for 24 hrs followed by H2O2 addition measured after 24 hrs by spectrophotometric analysis; format: cell-based
[8] = tested on: SH-SY5Y; experiment: Cytoprotective activity against H2O2-induced oxidative stress in human SH-SY5Y cells at 1 uM preincubated for 24 hrs followed by H2O2 addition measured after 24 hrs by DCFHDA dye-based flow cytometric analysis; format: functional, cell-based
[9] = tested on: SH-SY5Y; experiment: Cytoprotective activity against H2O2 stressed human SH-SY5Y cells assessed as increase in glutathione level at 1 uM preincubated for 24 hrs followed by H2O2 addition measured after 24 hrs by spectrophotometric analysis; format: functional
[10] = tested on: SH-SY5Y; experiment: Cytoprotective activity against H2O2-induced apoptosis in human SH-SY5Y cells assessed as dead cells at 100 nM preincubated for 24 hrs followed by H2O2 addition measured after 24 hrs by annexin V-FITC/propidium iodide staining-based flow cytometric analysis (reference value: 25.81 +/- 3.57%); format: functional
[11] = tested on: SH-SY5Y; experiment: as §1, with “100 nM” for “1 uM”; format: functional
[12] = tested on: SH-SY5Y; experiment: Cytoprotective activity against H2O2-induced apoptosis in human SH-SY5Y cells assessed as early apoptotic cells at 100 nM preincubated for 24 hrs followed by H2O2 addition measured after 24 hrs by annexin V-FITC/propidium iodide staining-based flow cytometric analysis relative to control; format: functional

## [O-]/[N+](=C\c1ccncc1)c1ccccc1
[1]
  Activity: 71%
[2]
  Activity: 42%

## Cc1ccc(/[N+]([O-])=C/c2ccncc2)cc1C
[1]
  Activity: 71%
[2]
  Activity: 42%

## [O-]/[N+](=C\c1ccccc1)c1ccccc1
[1]
  Activity: 71%
[3]
  Activity: 3.78%
[4]
  Activity: 1.56%
[5]
  viability at 1 µM: 85%
[6]
  Activity: 0%
[7]
  Activity: Non-toxic
[8]
  Activity: Active
[9]
  Activity: 65%
[2]
  Activity: 42%

## [O-]/[N+](=C\c1ccc2c(c1)OCO2)c1ccccc1
[1]
  Activity: 71%
[2]
  Activity: 42%

## CC(C)(C)/[N+]([O-])=C\c1ccccc1
[3]
  Activity: 9.42%
[4]
  Activity: 2.4%
[6]
  Activity: 0.03%
[8]
  Activity: Active
[9]
  Activity: 65%

## CN[C@@H]1C[C@H]2O[C@@](C)([C@@H]1OC)n1c3ccccc3c3c4c(c5c6ccccc6n2c5c31)C(=O)NC4 [STAUROSPORINE]
[10]
  Activity: 6.19%
[11]
  Activity: 14.49%
[12]
  Activity: 2.63%

## [O-]/[N+](=C\c1ccccc1)c1ccc(Cl)cc1
[1]
  Activity: 71%
[2]
  Activity: 42%

## Cc1ccc(/[N+]([O-])=C/c2ccccc2)cc1C
[1]
  Activity: 95%
[3]
  Activity: 9.13%
[4]
  Activity: 1.21%
[5]
  viability at 1 µM: 85%
[6]
  Activity: 0%
[7]
  Activity: Non-toxic
[8]
  Activity: Active
[9]
  Activity: 65%
[2]
  Activity: 42%

## [O-]/[N+](=C\c1ccncc1)c1ccc(Cl)cc1
[1]
  Activity: 71%
[2]
  Activity: 42%

## Cc1ccc(/[N+]([O-])=C/c2ccc3c(c2)OCO3)cc1C
[1]
  Activity: 71%
[2]
  Activity: 42%

## [O-]/[N+](=C\c1ccc2c(c1)OCO2)c1ccc(Cl)cc1
[1]
  Activity: 71%
[2]
  Activity: 42%
